Results taken from patent US8461362B2, “Protein phosphatase 2A-activating agents” (The Ohio State University Research Foundation, priority 2009, dated 2013).

How the values were obtained:
Type in all cases: cell-based
[1] = system: Sp1; assay: Sp1 protein expression, stability and ubiquitination in LNCaP cells; details: for Sp1 protein half-life relative to DMSO control / Sp1 protein expression: LNCaP cells; for Sp1 ubiquitination: LNCaP cells expressing HA-ubiquitin and Flag-Sp1, 24 h; for Sp1 protein expression: Western blot
Experimental: (§1) Cells cultured in T25 flasks were collected by scraping, and cell pellets were washed once with PBS. Cells were lysed in a lysis buffer consisting of 1% SDS, 10 mM EDTA and 50 mM Tris-HCl, pH 8.1, in the presence of a commercial protease inhibitor cocktail from Aldrich-Sigma (2 mM AEBSF, 1 mM EDTA, 130 μM bestatin, 14 μM E-64, 1 μM leupeptin, and 0.3 μM aprotinin). Following a 10-sec sonication using 20% output in a Virsonic 300 sonicator (Virtis, Gardiner N.Y.) to disrupt cellular organelles and genomic DNA, cell lysates were centrifuged at 15,200×g for 15 minutes. One μL of the suspension was used for protein determination using a colorimetric BCA assay (Pierce, Rockford, Ill.), and to the remaining solution was added an equivalent volume of 2×SDS-polyacrylamide gel electrophoresis sample loading buffer (62.5 mM Tris-HCl, pH 6.8, 4% SDS, 5% β-mercaptoethanol, 20% glycerol, and 0.1% bromophenol blue), and boiled for 5 min. Equal amounts of proteins were resolved in 8% SDS-polyacrylamide gels, and transferred to nitrocellulose membranes using a semidry transfer cell. The transblotted membrane was washed twice with Tris-buffered saline containing 0.1% Tween 20 (TBST). After blocking with TBST containing 5% nonfat milk for 40 min, the membrane was incubated with the appropriate primary antibody in TBST-1% nonfat milk at 4° C. overnight. All primary antibodies were diluted 1:1000 in 1% nonfat milk-containing TBST. After treatment with the primary antibody, the membrane was washed three times with TBST for a total of 15 min, followed by incubation with goat anti-rabbit or anti-mouse Immunoglobulin G (IgG)-horseradish peroxidase conjugates (diluted 1:2000) for 1 h at room temperature and four washes with TBST for a total of 1 h. The immunoblots were visualized by enhanced chemiluminescence.
LNCaP cells were co-transfected with 5 μg each of Flag-Sp1 and HA-ubiquitin plasmids in an Amaxa Nucleofector using a LNCaP-specific nucleofector kit. These transiently transfected cells were seeded in 6-well plates at 2×10^5 per well. After 48-h incubation, cells were exposed to VES or TS-1 at the indicated concentration for 48 h, and lysed by a radioimmunoprecipitation assay lysis buffer (Santa Cruz Biotechnology) in the presence of a freshly prepared cocktail of phosphatase and protease inhibitors (2 mmol/L AEBSF, 1 mM EDTA, 130 μM bestatin, 14 μM E-64, 1 μM leupeptin, and 0.3 μM aprotinin, 2 mM imidazole, 1 mM sodium fluoride, 1.15 mM sodium molybdate, 1 mM sodium orthovanadate, and 4 mmol/L sodium tartrate dihydrate). After centrifugation at 13,000×g for 15 min, the supernatants were collected, preincubated with protein A/G agarose (Santa Cruz Biotechnology) for 15 min, and centrifuged at 1,000×g for 5 min. Supernatant (20 μL) were stored at 4° C. to be used as input, whereas the remaining supernatant was exposed to 4 μg of anti-Sp1 antibodies at 4° C. for 12 h, followed by protein A/G agarose beads at 4° C. for another 2 h. After brief centrifugation, immunoprecipitates were collected, washed with the aforementioned lysis buffer four times, suspended in 2×SDS sample buffer, and subjected to Western blot analysis with antibodies against HA and Flag.

[2] = system: Akt, ERK, JNK and p38 phosphorylation in PC-3 cells; assay: Western blot of kinase phosphorylation in PC-3 cells
Experimental: as §1, with “All primary antibodies were diluted 1:1000 in 1% nonfat milk-containing TBST. After treatment with the primary antibody, the membrane was washed three times with TBST for a total of 15 min, followed by incubation with goat anti-rabbit or anti-mouse Immunoglobulin G (IgG)-horseradish peroxidase conjugates (diluted 1:2000) for 1 h at room temperature and four washes with TBST for a total of 1 h. The immunoblots were visualized by enhanced chemiluminescence.” left out

[3] = system: AR promoter; assay: AR promoter-luciferase reporter assay (hAR-Luc) in LNCaP cells; details: hAR-Luc transfected LNCaP cells, 72 h of exposure
Experimental: Transfection and Luciferase Assay.
Cells were transfected with 5 μg of the AR-linked luciferase reporter (hAR-Luc) plasmid in an Amaxa Nucleofector using a cell line-specific nucleofector kit according to the manufacturer's protocol (Amaxa Inc. Gaithersburg, Md.) and then seeded in T25 flasks at 3×10^5 cells per flask for 48 h. The transfection efficiency was determined by transfecting cells with 3 μg of pmaxGFP plasmid followed by fluorescence microscopy to detect green fluorescent protein expression. For each transfection, herpes simplex virus (HSV) thymidine kinase promoter-driven Renilla reniformis luciferase was used as an internal control for normalization. For the luciferase reporter gene assay, after transfection, cells were cultured in 24-well plates in 10% FBS-supplemented RPMI 1640 for 48 h, subjected to different treatments in 2.5% FBS-supplemented medium for the indicated times, collected, and lysed with passive lysis buffer (Promega). Aliquots of lysates (50 μL) were mixed with 75 μL of luciferase substrate (Promega) in 96-well plates, and luciferase activities were monitored in a MicroLumaPlus LB96V luminometer (Berthold Technologies, Oak Ridge, Tenn.) with the WinGlow software package. All transfection experiments were carried out in six replicates.

[4] = system: AR mRNA in LNCaP cells; assay: RT-PCR of AR mRNA in LNCaP cells; details: 10 μM
Experimental: RNA Isolation and Reverse Transcription (RT)-PCR.
LNCaP cells were subject to total RNA isolation by using a Trizol reagent (Invitrogen Corporation, CA). RNA concentrations were determined by measuring absorption at 260 nm in a spectrophotometer. Aliquots of 2 μg of total RNA from each sample were reverse transcribed to cDNAs using the iScript cDNA Synthesis Kit (Bio-Rad) according to the manufacturer's instructions. PCR products were resolved electrophoretically in 1.2% agarose gels and visualized by ethidium bromide staining.

Structure (SMILES)	Sp1 protein half-life relative to DMSO control [1]	Sp1 ubiquitination [1]	Sp1 protein expression [1]	phosphorylation levels of Akt, ERK, JNK, p38 [2]	AR gene transcription (luciferase reporter activity) [3]	AR mRNA transcript level [4]
Cc1c(C)c2c(c(C)c1OC(=O)CCC(=O)O)CCC(C)(CCCC(C)CCCC(C)C)O2 (stereo not drawn) [TS-1, succinic acid mono-[2-(4,8-dimethyl-nonyl)-2,5,7,8-tetramethylchroman-6-yl]ester]	shortened half-life	increased the extent of Sp1 ubiquitination	reduce Sp1 levels	also noted in PC-3 cells	dose-dependent inhibitory effect	time-dependent reduction
Cc1c(C)c2c(c(C)c1OC(=O)CCC(=O)O)CC[C@@](C)(CCC[C@H](C)CCC[C@H](C)CCCC(C)C)O2 [VES, α-tocopheryl succinate]	shortened half-life	increased the extent of Sp1 ubiquitination	reduce Sp1 levels	also noted in PC-3 cells	dose-dependent inhibitory effect	time-dependent reduction
